Experimental findings from US10364263B2, “Cyclic phosphates and cyclic phosphoramidates for the treatment of neurologic disorders” (Retrophin, Inc., priority 2015, dated 2019) are described below.

Series [1] concerns PANK2 silenced human neuroblastoma IMR32 cells (PANK2−/−). The series is described as follows: Coenzyme A assay in PANK2 silenced cells (LC-MS quantification of free CoA). The following applies: compound added twice (24 h + 24 h), relative to 0.1% DMSO controls. It is filed as cell-based. The gist of the method:
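PANK2 shRNA-silenced IMR32 neuroblastoma cells were treated with compound (0.1% DMSO) for 24 h, then re-dosed with fresh compound for a further 24 h at 37 °C. TFA extracts of 1×10^6 cells were assayed for free CoA by LC-MS/MS (MRM 768.1→261.6/136.1). Results are given as fold change versus DMSO controls.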

Series [2] in a line: Stability in mouse plasma. It is filed as in vitro ADME. The following applies: mouse, plasma; for t1/2, Mouse Plasma, Diastereoisomer B: 3 µM. On the procedure:
(§1) Compounds and positive control samples were dissolved in 100% DMSO at 3 mM. To investigate the stability of the test compounds in plasma, samples were made by diluting test compounds into plasma from the stock solutions to obtain a test compound concentration of 3 μM (0.1% DMSO). Before addition of a test compound, 990 μl of plasma were preincubated at 37° C. for 5 min in eppendorf. After addition of a test compound, 70 μl for each time point were transferred to a 96-deepwell plate, previously warmed at 37° C. in a DUBNOFF water bath. Each compound was tested at five time points, in duplicate (10, 20, 30, 40 and 60 min). At each time point, an aliquot of 50 μl was taken and transferred to a new 96-deepwell plate, and the reaction was stopped with 200 μl of 100% acetonitrile containing 0.1% formic acid and the appropriate internal standard. Then samples were centrifuged at 1100×g for 30 min at +4° C. and supernatants were transferred to a new 96-deepwell plate. Samples were evaporated under N2 and reconstituted in H2O/ACN 0.1% Formic Acid (98:2). Analysis was performed without a calibration curve (Acquity UPLC-Waters; SciexAPI4000). Time 0 was obtained by adding acetonitrile before addition of the test compound.

Series [3] is described as follows: Stability in human plasma. It is filed as in vitro ADME. The following applies: 37° C. On the procedure: as §1
Setting [4] is: human, plasma, Diastereoisomer A (upfield shift in 31P NMR), read-out: t1/2, Human Plasma, Diastereoisomer A (converted).
The mark [5] stands for this setting: human, plasma, Diastereoisomer B, read-out: t1/2, Human Plasma, Diastereoisomer B (converted).

Regarding `COC(=O)CCNC(=O)[C@@H]1OP(=O)(OCOC(=O)c2ccncc2)OCC1(C)C` (stereo partly drawn) [Compound No. 72, (((4R)-4-((3-methoxy-3-oxopropyl)carbamoyl)-5,5-dimethyl-2-oxido-1,3,2-dioxaphosphinan-2-yl)oxy)methyl isonicotinate], the “PANK2−/− CoA (Fold Increase): fold increase in Coenzyme A (CoA) levels relative to controls” value in series [1] is reported as 34.64 Fold Increase. In addition, the half-life at 3 µM in series [2] was less than 9.6 min; in series [3] (setting [4]) it was less than 0.16 h; in series [3] (setting [5]), less than 0.16 h. In addition, the “t1/2, Mouse Plasma, Diastereoisomer B” value in series [2] is less than 9.6 min.
As for `COC(=O)CCNC(=O)[C@@H]1OP(=O)(N[C@@H](C)C(=O)OCCc2scnc2C)OCC1(C)C` (stereo partly drawn) [compound 31, methyl 3-((4R)-5,5-dimethyl-2-(((S)-1-(2-(4-methylthiazol-5-yl)ethoxy)-1-oxopropan-2-yl)amino)-2-oxido-1,3,2-dioxaphosphinane-4-carboxamido)propanoate], in series [1], the “PANK2−/− CoA (Fold Increase): fold increase in Coenzyme A (CoA) levels relative to controls” value is reported as 1.1 Fold Increase. In addition, the results for the half-life at 3 µM in series [2], in series [3] (setting [4]) and in series [3] (setting [5]) were less than 9.6 min, greater than 1 h and greater than 1 h, respectively. For the same compound, the “t1/2, Mouse Plasma, Diastereoisomer B” value in series [2] was less than 9.6 min.
Take `COC(=O)CCNC(=O)[C@@H]1OP(=O)(N[C@@H](C)C(=O)OCCCc2ccccc2)OCC1(C)C` (stereo in doubt) [compound 46, methyl 3-((2R,4R)-5,5-dimethyl-2-oxido-2-(((S)-1-oxo-1-(3-phenylpropoxy)propan-2-yl)amino)-1,3,2-dioxaphosphinane-4-carboxamido)propanoate]: the “PANK2−/− CoA (Fold Increase): fold increase in Coenzyme A (CoA) levels relative to controls” value in series [1] turned out to be 2.74 Fold Increase. In addition, the half-life at 3 µM in series [3] (setting [4]) was 0.95 h.
Regarding `COC(=O)CCNC(=O)[C@@H]1OP(=O)(N[C@@H](C)C(=O)OC2CCOC2)OCC1(C)C` (stereo partly drawn) [compound 34, methyl 3-((4R)-5,5-dimethyl-2-oxido-2-(((2S)-1-oxo-1-((tetrahydrofuran-3-yl)oxy)propan-2-yl)amino)-1,3,2-dioxaphosphinane-4-carboxamido)propanoate], the “PANK2−/− CoA (Fold Increase): fold increase in Coenzyme A (CoA) levels relative to controls” value in series [1] is on record as 1.3 Fold Increase. Also, the half-life at 3 µM in series [3] (Diastereoisomer A (upfield shift in 31P NMR), read-out: t1/2, Human Plasma, Diastereoisomer A (converted)) is greater than 1 h. In series [3] (Diastereoisomer B, 3 μM), the “t1/2, Human Plasma, Diastereoisomer B” value was greater than 1 h.
For the compound `COC(=O)CCNC(=O)[C@@H]1OP(=O)(OCOC(=O)C(C)C)OCC1(C)C` (stereo partly drawn) [Compound No. 103, (((4R)-4-((3-methoxy-3-oxopropyl)carbamoyl)-5,5-dimethyl-2-oxido-1,3,2-dioxaphosphinan-2-yl)oxy)methyl isobutyrate], the “PANK2−/− CoA (Fold Increase): fold increase in Coenzyme A (CoA) levels relative to controls” value in series [1] is given as 105.8 Fold Increase. Further, the half-life at 3 µM in series [3] (setting [4]) and in series [3] (setting [5]) was less than 0.16 h each time.
For `COC(=O)CCNC(=O)[C@@H]1OP(=O)(N[C@@H](C)C(=O)OCCc2ccccc2)OCC1(C)C` (stereo in doubt) [compound 48, methyl 3-((2R,4R)-5,5-dimethyl-2-oxido-2-(((S)-1-oxo-1-phenethoxypropan-2-yl)amino)-1,3,2-dioxaphosphinane-4-carboxamido)propanoate], in series [1], the “PANK2−/− CoA (Fold Increase): fold increase in Coenzyme A (CoA) levels relative to controls” value was 2.16 Fold Increase. Moreover, in series [3] (setting [4]), the half-life at 3 µM is greater than 1 h.
`COC(=O)CCNC(=O)[C@@H]1O[P@](=O)(N[C@H](C(=O)OCCc2ccccc2)C(C)C)OCC1(C)C` [compound 45, phenethyl ((2S,4R)-4-((3-methoxy-3-oxopropyl)carbamoyl)-5,5-dimethyl-2-oxido-1,3,2-dioxaphosphinan-2-yl)-L-valinate]: in series [1], the “PANK2−/− CoA (Fold Increase): fold increase in Coenzyme A (CoA) levels relative to controls” value came out at 1.3 Fold Increase. For the same compound, the half-life at 3 µM in series [3] (setting [4]) is greater than 1 h.
In the case of `C[C@H](NP1(=O)OCC(C)(C)[C@H](C(=O)NCCC(=O)OCc2ccncc2)O1)C(=O)OCCc1ccccc1` (stereo partly drawn) [compound 38, phenethyl ((4R)-5,5-dimethyl-2-oxido-4-((3-oxo-3-(pyridin-4-ylmethoxy)propyl)carbamoyl)-1,3,2-dioxaphosphinan-2-yl)-L-alaninate], in series [1], the “PANK2−/− CoA (Fold Increase): fold increase in Coenzyme A (CoA) levels relative to controls” value is given as 2.76 Fold Increase. Further, the half-life at 3 µM in series [3] (setting [4]) and in series [3] (setting [5]) was greater than 1 h throughout.
Regarding `C[C@H](NP1(=O)OCC(C)(C)[C@H](C(=O)NCCC(=O)OCCN2CCCC2)O1)C(=O)OCCc1ccccc1` (stereo partly drawn) [compound 44, phenethyl ((4R)-5,5-dimethyl-2-oxido-4-((3-oxo-3-(2-(pyrrolidin-1-yl)ethoxy)propyl)carbamoyl)-1,3,2-dioxaphosphinan-2-yl)-L-alaninate], the “PANK2−/− CoA (Fold Increase): fold increase in Coenzyme A (CoA) levels relative to controls” value in series [1] was 1.62 Fold Increase. The half-life at 3 µM in series [3] (setting [4]) was greater than 1 h.
Taken in the same sequence, the figures for `C[C@H](NP1(=O)OCC(C)(C)[C@H](C(=O)NCCC(=O)OC[C@H]2CCC(=O)N2)O1)C(=O)OCCc1ccccc1` (stereo partly drawn) [compound 47, ((R)-5-oxopyrrolidin-2-yl)methyl 3-((4R)-5,5-dimethyl-2-oxido-2-(((S)-1-oxo-1-phenethoxypropan-2-yl)amino)-1,3,2-dioxaphosphinane-4-carboxamido)propanoate] were 1.38 Fold Increase and greater than 1 h.
Consider `COC(=O)CCNC(=O)[C@@H]1OP(=O)(N[C@@H](Cc2cccnc2)C(=O)OCCc2ccccc2)OCC1(C)C` (stereo partly drawn) [compound 36, phenethyl (2S)-2-(((4R)-4-((3-methoxy-3-oxopropyl)carbamoyl)-5,5-dimethyl-2-oxido-1,3,2-dioxaphosphinan-2-yl)amino)-3-(pyridin-3-yl)propanoate], for which the “PANK2−/− CoA (Fold Increase): fold increase in Coenzyme A (CoA) levels relative to controls” value in series [1] worked out at 2.44 Fold Increase. Further, the half-life at 3 µM in series [3] (setting [4]) and in series [3] (setting [5]) was greater than 1 h each time.
Turning to `CN1CCCC(OC(=O)CCNC(=O)[C@@H]2OP(=O)(OCOC(=O)C(C)(C)C)OCC2(C)C)C1` (stereo partly drawn) [Compound No. 99, (((4R)-5,5-dimethyl-4-((3-((1-methylpiperidin-3-yl)oxy)-3-oxopropyl)carbamoyl)-2-oxido-1,3,2-dioxaphosphinan-2-yl)oxy)methyl pivalate], in series [1], the “PANK2−/− CoA (Fold Increase): fold increase in Coenzyme A (CoA) levels relative to controls” value came to 10.44 Fold Increase. Further, the half-life at 3 µM in series [3] (setting [4]) is 0.66 h.
On to `COC(=O)CCNC(=O)[C@@H]1O[P@@](=O)(N[C@@H](C)C(=O)OCCc2ccccn2)OCC1(C)C` [compound 35, methyl 3-((2R,4R)-5,5-dimethyl-2-oxido-2-(((S)-1-oxo-1-(2-(pyridin-2-yl)ethoxy)propan-2-yl)amino)-1,3,2-dioxaphosphinane-4-carboxamido)propanoate], for which the “PANK2−/− CoA (Fold Increase): fold increase in Coenzyme A (CoA) levels relative to controls” value in series [1] is listed as 2.23 Fold Increase. Moreover, the half-life at 3 µM was greater than 1 h in series [3] (setting [4]) and 0.89 h in series [3] (setting [5]).
Taken in the same sequence, the figures for `C[C@H](NP1(=O)OCC(C)(C)[C@H](C(=O)NCCC(=O)O[C@@H]2CCOC2)O1)C(=O)OCCc1ccccc1` (stereo partly drawn) [1-55, phenethyl ((4R)-5,5-dimethyl-2-oxido-4-((3-oxo-3-(((R)-tetrahydrofuran-3-yl)oxy)propyl)carbamoyl)-1,3,2-dioxaphosphinan-2-yl)-L-alaninate] were 2.09 Fold Increase, greater than 1 h and greater than 1 h.
Taken in the same sequence, the figures for `C[C@H](NP1(=O)OCC(C)(C)[C@H](C(=O)NCCC(=O)OCC2CC2)O1)C(=O)OCCc1ccccc1` (stereo partly drawn) [compound 37, cyclopropylmethyl 3-((4R)-5,5-dimethyl-2-oxido-2-(((S)-1-oxo-1-phenethoxypropan-2-yl)amino)-1,3,2-dioxaphosphinane-4-carboxamido)propanoate] were 1.9 Fold Increase, greater than 1 h and greater than 1 h.
On to `CC(C)[C@H](N[P@]1(=O)OCC(C)(C)[C@H](C(=O)NCCC(=O)OC(C)(C)C)O1)C(=O)OCCc1ccccc1` [compound 49, phenethyl ((2S,4R)-4-((3-(tert-butoxy)-3-oxopropyl)carbamoyl)-5,5-dimethyl-2-oxido-1,3,2-dioxaphosphinan-2-yl)-L-valinate], for which, in series [1], the “PANK2−/− CoA (Fold Increase): fold increase in Coenzyme A (CoA) levels relative to controls” value came to 1.09 Fold Increase. The half-life at 3 µM in series [3] (setting [4]) was greater than 1 h.
For `C[C@H](NP1(=O)OCC(C)(C)[C@H](C(=O)NCCC(=O)OC2Cc3ccccc3C2)O1)C(=O)OCCc1ccccc1` (stereo partly drawn) [1-54, 2,3-dihydro-1H-inden-2-yl 3-((4R)-5,5-dimethyl-2-oxido-2-(((S)-1-oxo-1-phenethoxypropan-2-yl)amino)-1,3,2-dioxaphosphinane-4-carboxamido)propanoate], in series [1], the “PANK2−/− CoA (Fold Increase): fold increase in Coenzyme A (CoA) levels relative to controls” value was determined as 1.13 Fold Increase. Besides, the half-life at 3 µM in series [3] (setting [4]) and in series [3] (setting [5]) was less than 0.16 h in each case.
